Laboratory results as given in PMC9104286, “Characterization of a Cutibacterium acnes Camp Factor 1-Related Peptide as a New TLR-2 Modulator in In Vitro and Ex Vivo Models of Inflammation” (International Journal of Molecular Sciences, 2022).

How the values were obtained:
C. acnes 6919 = assay: Bacterial growth monitored at 620 nm; assay type: cell-based, Cutibacterium acnes; settings: C. acnes 6919, 5 days; B2 at 1 to 128 μM; antibiotics as positive control; growth at 620 nm
From the text: (§1) As a positive control for growth inhibition, we cultured the bacteria in the presence of the antibiotic ampicillin, doxycycline and clindamycin.
(§2) Bacterial growth was monitored at 620 nm.
(§3) We used 24 strains of C. acnes in the study: strain 6919 (Type IA1) from the American Type Culture Collection (Manassas, VA) and strains isolated from various infections (13 bone and joint infections, 1 case of pleuritis, 1 case of appendicitis, 1 case of pericarditis, 1 case of pneumonia, 3 cutaneous infections, 1 case of bacteremia and 2 ascitic fluid infections). C. acnes strains RON (IA1), TRI (IA2), LIE (IA2), CHR (IA2), GUE (IB) and PIE (IB) were isolated from patients with joint infections. All these strains were kindly provided by Dr. Philippe Morand from the Bacteriology Department at Cochin Hospital, Paris, France. C. acnes strains were grown under anaerobic conditions in liquid or solidified reinforced clostridial medium (RCM; Difco Laboratories, Detroit, MI, USA), in a GasPak™ EZ Anaerobic Container System (Becton Dickinson & Co, Franklin Lakes, NJ, USA) at 37 °C. For routine culture, 100 mL of RCM was used and the bacteria were harvested after 5 days at 37 °C, by centrifugation at 7,000 x g for 10 min and 4 °C. The pellets were pooled and washed in about 30 mL cold sterile phosphate-buffered saline (PBS) (1.5 mM KH2PO4, 2.7 mM Na2HPO4.7H2O, 0.15 M NaCl (pH 7.4)), and were then centrifuged again, as described above. The final bacterial pellet was suspended in sterile PBS (1:10 based on the volume of the culture). Staphylococcus aureus (ATCC #25923) and Staphylococcus epidermidis (ATCC #12228) were grown in tryptic soy broth (TSB) and brain heart infusion (BHI) (Sigma-Aldrich, Saint-Louis, MO, USA) under aerobic conditions at 37 °C.

S. aureus = assay: Bacterial growth monitored at 620 nm; assay type: cell-based, Staphylococcus aureus; settings: 24 h; B2 at 1 to 128 μM; antibiotics as positive control; growth at 620 nm
From the text: as §1, §2, §3

S. epidermidis = assay: Bacterial growth monitored at 620 nm; assay type: cell-based, Staphylococcus epidermidis; settings: 24 h; B2 at 1 to 128 μM; antibiotics as positive control; growth at 620 nm
From the text: as §1, §2, §3

human skin explants = assay: Ex vivo human skin explants, induction of proinflammatory molecules by stimuli; assay type: cell-based; settings: skin explants stimulated 18 h, LPS or PGN 5 µg/ml, Luminex, culture supernatant, mean ± SEM, n = 6

Compound | effect on growth of C. acnes (in words) (C. acnes 6919) | effect on growth of S. aureus (in words) (S. aureus) | effect on growth of S. epidermidis (in words) (S. epidermidis) | GM-CSF levels (human skin explants) [pg/mL] | IL-1β levels (human skin explants) [pg/mL] | IL-10 production (human skin explants) [pg/mL] | TNF-α production (human skin explants) [pg/mL]
CC1(C)S[C@@H]2[C@H](NC(=O)[C@H](N)c3ccccc3)C(=O)N2[C@H]1C(=O)O [ampicillin] | susceptible | susceptible | resistant | – | – | – | –
lipopolysaccharide [LPS] | – | – | – | 765 ± 30 | 392 ± 5.6 | 10 ± 0.3 | 22 ± 1.7
CCC[C@@H]1C[C@@H](C(=O)N[C@@H]([C@H]2O[C@H](SC)[C@H](O)[C@@H](O)[C@H]2O)[C@H](C)Cl)N(C)C1 [clindamycin] | susceptible | susceptible | susceptible | – | – | – | –
C[C@H]1c2cccc(O)c2C(=O)C2=C(O)[C@]3(O)C(=O)C(C(N)=O)=C(O)[C@@H](N(C)C)[C@@H]3[C@@H](O)[C@@H]21 [doxycycline] | susceptible | susceptible | susceptible | – | – | – | –
peptidoglycan [PGN] | – | – | – | 4733 ± 218 | 23 ± 0.8 | 35 ± 1.4 | 126 ± 9.3
